Reference: the supplement of paper PMC10307832

What was measured:
Assay in all cases: relative viability (nuclei count vs DMSO), 5 days (fraction); higher = more cells survive
[1] = compound: COc1cc(-c2nn([C@H]3CC[C@H](N4CCN(C(C)=O)CC4)CC3)c3ncnc(N)c23)ccc1NC(=O)c1cc2ccccc2n1C + Nc1ncn([C@H]2C[C@H](O)[C@@H](CO)O2)c(=O)n1 [Decitabine] (partner 2 µM)
In short: (§1)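 Relative viability divides the nuclei count in treated wells by that in vehicle wells. Lung cancer cell lines were seeded in 1536-well plates, dosed by pin tool the next day, and fixed and stained after 5 days in one step with final 0.05% Triton X-100, 1% formaldehyde and 1 ug/ml Hoechst. Dosing was a single drug or a fixed anchor-drug dose plus five library-drug doses (not always all listed) in √10 steps, and values are medians of duplicate plates imaged at 4×.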

[2] = compound: COc1cc(-c2nn([C@H]3CC[C@H](N4CCN(C(C)=O)CC4)CC3)c3ncnc(N)c23)ccc1NC(=O)c1cc2ccccc2n1C + Cc1cc(Nc2cc(N3CCN(C)CC3)nc(Sc3ccc(NC(=O)C4CC4)cc3)n2)n[nH]1 [Tozasertib] (partner 0.1 µM)
In short: as §1

[3] = compound: COc1cc(-c2nn([C@H]3CC[C@H](N4CCN(C(C)=O)CC4)CC3)c3ncnc(N)c23)ccc1NC(=O)c1cc2ccccc2n1C + O=C(CCCCCCC(=O)Nc1ccccc1)NO [Vorinostat] (partner 1 µM)
In short: as §1

Midostaurin + Foretinib = compound: CO[C@@H]1[C@H](N(C)C(=O)c2ccccc2)C[C@H]2O[C@]1(C)n1c3ccccc3c3c4c(c5c6ccccc6n2c5c31)C(=O)NC4 [Midostaurin] + COc1cc2c(Oc3ccc(NC(=O)C4(C(=O)Nc5ccc(F)cc5)CC4)cc3F)ccnc2cc1OCCCN1CCOCC1 [Foretinib] (partner 0.25 µM)
In short: as §1

[4] = compound: COc1cc(-c2nn([C@H]3CC[C@H](N4CCN(C(C)=O)CC4)CC3)c3ncnc(N)c23)ccc1NC(=O)c1cc2ccccc2n1C + O=C(c1cc(Cc2n[nH]c(=O)c3ccccc23)ccc1F)N1CCN(C(=O)C2CC2)CC1 [Olaparib] (partner 8 µM)
In short: as §1

Cell Line NCI-H2009 has a relative viability ([1]; first compound 0.0128 µM) of 0.352, a relative viability ([1]; first compound 0.04048 µM) of 0.386 and a relative viability ([1]; first compound 0.128 µM) of 0.33. The relative viability ([1]; first compound 1.28 µM) was 0.357, the relative viability ([2]; first compound 0.0128 µM) was 0.743 and the relative viability ([2]; first compound 0.04048 µM) was 0.734. It also gave a relative viability ([2]; first compound 0.128 µM) of 0.681, a relative viability ([2]; first compound 1.28 µM) of 0.606 and a relative viability ([3]; first compound 0.0128 µM) of 0.711. The relative viability ([3]; first compound 0.04048 µM) was 0.702, the relative viability ([3]; first compound 0.128 µM) was 0.78 and the relative viability ([3]; first compound 1.28 µM) was 0.751. The relative viability (Midostaurin + Foretinib; first compound 0.01 µM) was 1.22, the relative viability (Midostaurin + Foretinib; first compound 0.03162 µM) was 1.09 and the relative viability (Midostaurin + Foretinib; first compound 0.1 µM) was 0.88. The relative viability (Midostaurin + Foretinib; first compound 0.3162 µM) was 1.16, the relative viability ([4]; first compound 0.0128 µM) was 0.706 and the relative viability ([4]; first compound 0.04048 µM) was 0.714. For the same cell line, the relative viability ([4]; first compound 0.128 µM) was 0.674 and the relative viability ([4]; first compound 1.28 µM) was 0.69.
In the case of HCC-15, the relative viability ([1]; first compound 0.0128 µM) is reported as 0.822, the relative viability ([1]; first compound 0.04048 µM) is reported as 0.589 and the relative viability ([1]; first compound 0.128 µM) is reported as 0.638. For the same cell line, the relative viability ([1]; first compound 1.28 µM) was 0.567, the relative viability ([2]; first compound 0.0128 µM) was 0.332 and the relative viability ([2]; first compound 0.04048 µM) was 0.473. For the same cell line, the relative viability ([2]; first compound 0.128 µM) was 0.331, the relative viability ([2]; first compound 1.28 µM) was 0.247 and the relative viability ([3]; first compound 0.0128 µM) was 0.954. It also gave a relative viability ([3]; first compound 0.04048 µM) of 0.752, a relative viability ([3]; first compound 0.128 µM) of 0.85 and a relative viability ([3]; first compound 1.28 µM) of 0.698. For the same cell line, the relative viability (Midostaurin + Foretinib; first compound 0.01 µM) was 1.08, the relative viability (Midostaurin + Foretinib; first compound 0.03162 µM) was 0.856 and the relative viability (Midostaurin + Foretinib; first compound 0.1 µM) was 1.04. For the same cell line, the relative viability (Midostaurin + Foretinib; first compound 0.3162 µM) was 1.05, the relative viability ([4]; first compound 0.0128 µM) was 0.745 and the relative viability ([4]; first compound 0.04048 µM) was 0.77. The relative viability ([4]; first compound 0.128 µM) was 0.719 and the relative viability ([4]; first compound 1.28 µM) was 0.651.
For HCC-44, the relative viability ([1]; first compound 0.0128 µM) was 1.13, the relative viability ([1]; first compound 0.04048 µM) was 0.979 and the relative viability ([1]; first compound 0.128 µM) was 0.846. The relative viability ([1]; first compound 1.28 µM) was 1.04, the relative viability ([2]; first compound 0.0128 µM) was 0.707 and the relative viability ([2]; first compound 0.04048 µM) was 1.29. For the same cell line, the relative viability ([2]; first compound 0.128 µM) was 0.796, the relative viability ([2]; first compound 1.28 µM) was 0.819 and the relative viability ([3]; first compound 0.0128 µM) was 1.24. For the same cell line, the relative viability ([3]; first compound 0.04048 µM) was 1.1, the relative viability ([3]; first compound 0.128 µM) was 1.12 and the relative viability ([3]; first compound 1.28 µM) was 1.18. The relative viability ([4]; first compound 0.0128 µM) was 1.1, the relative viability ([4]; first compound 0.04048 µM) was 1.09 and the relative viability ([4]; first compound 0.128 µM) was 0.916. The relative viability ([4]; first compound 1.28 µM) was 1.27.
NCI-H1299 was tested, and the relative viability (Midostaurin + Foretinib; first compound 0.01 µM) was 1.07, the relative viability (Midostaurin + Foretinib; first compound 0.03162 µM) was 1.04 and the relative viability (Midostaurin + Foretinib; first compound 0.1 µM) was 1.05. For the same cell line, the relative viability (Midostaurin + Foretinib; first compound 0.3162 µM) was 0.976, the relative viability ([4]; first compound 0.0128 µM) was 0.978 and the relative viability ([4]; first compound 0.04048 µM) was 1.01. The relative viability ([4]; first compound 0.128 µM) was 0.914 and the relative viability ([4]; first compound 1.28 µM) was 1.01.
NCI-H2228 was tested, and the relative viability ([2]; first compound 0.0128 µM) was 0.273, the relative viability ([2]; first compound 0.04048 µM) was 0.242 and the relative viability ([2]; first compound 0.128 µM) was 0.22. For the same cell line, the relative viability ([2]; first compound 1.28 µM) was 0.157, the relative viability ([3]; first compound 0.0128 µM) was 0.869 and the relative viability ([3]; first compound 0.04048 µM) was 0.609. It also gave a relative viability ([3]; first compound 0.128 µM) of 0.568, a relative viability ([3]; first compound 1.28 µM) of 0.527 and a relative viability (Midostaurin + Foretinib; first compound 0.01 µM) of 0.922. It also gave a relative viability (Midostaurin + Foretinib; first compound 0.03162 µM) of 0.85, a relative viability (Midostaurin + Foretinib; first compound 0.1 µM) of 1.08 and a relative viability (Midostaurin + Foretinib; first compound 0.3162 µM) of 0.905. It also gave a relative viability ([4]; first compound 0.0128 µM) of 0.711, a relative viability ([4]; first compound 0.04048 µM) of 0.948 and a relative viability ([4]; first compound 0.128 µM) of 0.567. For the same cell line, the relative viability ([4]; first compound 1.28 µM) was 0.459.
With NCI-H1563 the relative viability (Midostaurin + Foretinib; first compound 0.01 µM) was 0.985, the relative viability (Midostaurin + Foretinib; first compound 0.03162 µM) was 0.976 and the relative viability (Midostaurin + Foretinib; first compound 0.1 µM) was 0.847. For the same cell line, the relative viability (Midostaurin + Foretinib; first compound 0.3162 µM) was 0.785.
Cell Line A549 has a relative viability ([1]; first compound 0.0128 µM) of 0.237, a relative viability ([1]; first compound 0.04048 µM) of 0.252 and a relative viability ([1]; first compound 0.128 µM) of 0.228. The relative viability ([1]; first compound 1.28 µM) was 0.245, the relative viability (Midostaurin + Foretinib; first compound 0.01 µM) was 0.871 and the relative viability (Midostaurin + Foretinib; first compound 0.03162 µM) was 0.781. It also gave a relative viability (Midostaurin + Foretinib; first compound 0.1 µM) of 0.939, a relative viability (Midostaurin + Foretinib; first compound 0.3162 µM) of 0.99 and a relative viability ([4]; first compound 0.0128 µM) of 0.302. It also gave a relative viability ([4]; first compound 0.04048 µM) of 0.47, a relative viability ([4]; first compound 0.128 µM) of 0.465 and a relative viability ([4]; first compound 1.28 µM) of 0.271.
In the case of NCI-H1623, the relative viability ([2]; first compound 0.0128 µM) is reported as 0.449, the relative viability ([2]; first compound 0.04048 µM) is reported as 0.419 and the relative viability ([2]; first compound 0.128 µM) is reported as 0.424. For the same cell line, the relative viability ([2]; first compound 1.28 µM) was 0.41, the relative viability (Midostaurin + Foretinib; first compound 0.01 µM) was 0.995 and the relative viability (Midostaurin + Foretinib; first compound 0.03162 µM) was 0.876. It also gave a relative viability (Midostaurin + Foretinib; first compound 0.1 µM) of 0.949 and a relative viability (Midostaurin + Foretinib; first compound 0.3162 µM) of 0.941.
NCI-H522 gave a relative viability ([1]; first compound 0.0128 µM) of 0.665, a relative viability ([1]; first compound 0.04048 µM) of 0.7 and a relative viability ([1]; first compound 0.128 µM) of 0.738. For the same cell line, the relative viability ([1]; first compound 1.28 µM) was 0.717, the relative viability ([2]; first compound 0.0128 µM) was 0.614 and the relative viability ([2]; first compound 0.04048 µM) was 0.59. For the same cell line, the relative viability ([2]; first compound 0.128 µM) was 0.566, the relative viability ([2]; first compound 1.28 µM) was 0.445 and the relative viability ([3]; first compound 0.0128 µM) was 0.898. For the same cell line, the relative viability ([3]; first compound 0.04048 µM) was 0.946, the relative viability ([3]; first compound 0.128 µM) was 0.823 and the relative viability ([3]; first compound 1.28 µM) was 0.79. It also gave a relative viability ([4]; first compound 0.0128 µM) of 0.558, a relative viability ([4]; first compound 0.04048 µM) of 0.593 and a relative viability ([4]; first compound 0.128 µM) of 0.617. For the same cell line, the relative viability ([4]; first compound 1.28 µM) was 0.522.
For IA-LM, the relative viability ([3]; first compound 0.0128 µM) was 1.07, the relative viability ([3]; first compound 0.04048 µM) was 0.877 and the relative viability ([3]; first compound 0.128 µM) was 0.79. The relative viability ([3]; first compound 1.28 µM) was 0.912, the relative viability (Midostaurin + Foretinib; first compound 0.01 µM) was 1.15 and the relative viability (Midostaurin + Foretinib; first compound 0.03162 µM) was 0.86. The relative viability (Midostaurin + Foretinib; first compound 0.1 µM) was 1.23, the relative viability (Midostaurin + Foretinib; first compound 0.3162 µM) was 1.05 and the relative viability ([4]; first compound 0.0128 µM) was 0.871. The relative viability ([4]; first compound 0.04048 µM) was 0.877, the relative viability ([4]; first compound 0.128 µM) was 1.03 and the relative viability ([4]; first compound 1.28 µM) was 0.961.
Cell Line CAL-12T has a relative viability ([2]; first compound 0.0128 µM) of 0.29, a relative viability ([2]; first compound 0.04048 µM) of 0.275 and a relative viability ([2]; first compound 0.128 µM) of 0.221. For the same cell line, the relative viability ([2]; first compound 1.28 µM) was 0.178, the relative viability ([3]; first compound 0.0128 µM) was 0.871 and the relative viability ([3]; first compound 0.04048 µM) was 0.706. For the same cell line, the relative viability ([3]; first compound 0.128 µM) was 0.702, the relative viability ([3]; first compound 1.28 µM) was 0.753 and the relative viability (Midostaurin + Foretinib; first compound 0.01 µM) was 1.17. The relative viability (Midostaurin + Foretinib; first compound 0.03162 µM) was 0.959, the relative viability (Midostaurin + Foretinib; first compound 0.1 µM) was 0.733 and the relative viability (Midostaurin + Foretinib; first compound 0.3162 µM) was 1.11. It also gave a relative viability ([4]; first compound 0.0128 µM) of 0.682, a relative viability ([4]; first compound 0.04048 µM) of 0.763 and a relative viability ([4]; first compound 0.128 µM) of 0.811. The relative viability ([4]; first compound 1.28 µM) was 0.697.
EBC-1 gave a relative viability (Midostaurin + Foretinib; first compound 0.01 µM) of 0.104, a relative viability (Midostaurin + Foretinib; first compound 0.03162 µM) of 0.103 and a relative viability (Midostaurin + Foretinib; first compound 0.1 µM) of 0.112. The relative viability (Midostaurin + Foretinib; first compound 0.3162 µM) was 0.102, the relative viability ([4]; first compound 0.0128 µM) was 0.679 and the relative viability ([4]; first compound 0.04048 µM) was 0.746. For the same cell line, the relative viability ([4]; first compound 0.128 µM) was 0.546 and the relative viability ([4]; first compound 1.28 µM) was 0.654.
